Reference: patent US9969716B2, “Indole derivatives as modulators of methyl modifying enzymes, compositions and uses thereof” (Constellation Pharmaceuticals, Inc., priority 2013, dated 2018)

Legend:
Y641N EZH2 = Y641N EZH2 (Homo sapiens, UniProt Q15910, Y641N); test: Y641N EZH2 assay (as EZH2 assay, H3K27Me2 oligonucleosomes as substrate); format: biochemical
Description: EZH2 Assay: Assays were carried out by mixing rPRC2 together with biotinylated oligonucleosome substrates in the presence of the radio-labeled enzyme co-factor, S-adenosyl-L-methionine (^3H SAM) (Perkin Elmer) and monitoring the enzymatically mediated transfer of tritiated methyl groups from ^3H SAM to histone lysine residues. The amount of resulting tritiated methyl histone product was measured by first capturing the biotinylated oligonucleosomes in streptavidin (SAV) coated FlashPlates (Perkin Elmer), followed by a wash step to remove un-reacted ^3H SAM, and then counting on a TopCount NXT 384 well plate scintillation counter (Perkin Elmer). The final assay conditions for EZH2 were as follows: 50 mM Tris Buffer pH 8.5, 1 mM DTT, 69 μM Brij-35 detergent, 5.0 mM MgCl2, 0.1 mg/mL BSA, 0.2 μM ^3H SAM, 0.2 μM biotinylated oligonucleosomes, 3.6 μM H3K27me3 peptide and 2 nM EZH2.
A 12.5 μL volume of the HMT enzyme, H3K27me3 peptide and oligonucleosome substrate in assay buffer was added to each well of the assay plate using a Multidrop Combi (ThermoFisher). Compounds were pre-incubated with the enzyme for 20 min, followed by initiation of the methyltransferase reaction by addition of 12.5 μL of ^3H SAM in assay buffer (final volume=25 μL). The final concentrations of compounds ranged from a top default concentration of 80 μM down to 0.16 μM in ten 2-fold dilution steps. Reactions were carried out for 60 minutes and quenched with 20 μL per well of 1.96 mM SAH, 50 mM Tris pH 8.5, 200 mM EDTA. Stopped reactions were transferred to SAV coated Flashplates (Perkin Elmer), incubated for 120 min, washed with a plate washer, and then read on the TopCount NXT (1.0 min/well) to measure the amount of methyl histone product formed during the reaction.

EZH2 = EZH2 (Homo sapiens, UniProt Q15910); test: EZH2 assay (rPRC2, 3H SAM methyl transfer to biotinylated oligonucleosomes, FlashPlate); format: biochemical
How it was run: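 rPRC2 (2 nM EZH2) with 0.2 μM biotinylated oligonucleosomes, 3.6 μM H3K27me3 peptide, 0.2 μM 3H SAM in pH 8.5 Tris buffer; compounds (80 to 0.16 μM) preincubated 20 min, reaction 60 min, SAH/EDTA quench. Methylated product captured on streptavidin FlashPlates, scintillation counted.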

[1] = tested on: H3K27me3 mark in HeLa cells; test: H3K27me3 Alpha Hela Assay (AlphaLISA); format: cell-based; details: Homo sapiens, 72 hrs, read-out: EZH2_Cell_H3K27me3_Alpha_HeLa (EC50_K27me3)
How it was run: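 Ten-dose 3-fold series on HeLa cells (1,000/well, 10% DMEM), 72 hrs at 37° C. Lysis, histone extraction, then AlphaLISA with anti-K27me3 acceptor beads, biotinylated anti-H3 C-ter antibody (3 nM final) and streptavidin donor beads (20 μg/mL final); duplicate plate used for viability. DMSO-normalized dose-response curves fitted.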

Sequence of EZH2 (Q15910 whole entry): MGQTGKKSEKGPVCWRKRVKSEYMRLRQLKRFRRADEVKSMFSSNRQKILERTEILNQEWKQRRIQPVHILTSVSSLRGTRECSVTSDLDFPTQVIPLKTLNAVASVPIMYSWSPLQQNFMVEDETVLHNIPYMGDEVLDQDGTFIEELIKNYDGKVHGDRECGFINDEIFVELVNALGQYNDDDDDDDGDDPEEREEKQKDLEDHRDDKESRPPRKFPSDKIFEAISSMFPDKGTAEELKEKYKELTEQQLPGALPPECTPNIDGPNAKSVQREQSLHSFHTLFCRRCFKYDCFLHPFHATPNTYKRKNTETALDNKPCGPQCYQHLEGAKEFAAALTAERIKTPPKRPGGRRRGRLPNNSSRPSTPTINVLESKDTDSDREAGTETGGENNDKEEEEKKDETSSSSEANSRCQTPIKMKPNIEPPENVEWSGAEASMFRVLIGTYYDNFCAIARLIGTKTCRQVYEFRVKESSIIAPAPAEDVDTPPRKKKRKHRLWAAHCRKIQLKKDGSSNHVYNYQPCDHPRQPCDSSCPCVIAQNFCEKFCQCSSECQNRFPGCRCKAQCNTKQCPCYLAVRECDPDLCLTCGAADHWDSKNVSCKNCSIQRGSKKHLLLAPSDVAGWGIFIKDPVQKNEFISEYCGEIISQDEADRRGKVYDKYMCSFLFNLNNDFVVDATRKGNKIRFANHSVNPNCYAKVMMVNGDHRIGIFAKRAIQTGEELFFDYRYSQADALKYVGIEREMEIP
Sequence of EZH2 (O75530 whole entry partner): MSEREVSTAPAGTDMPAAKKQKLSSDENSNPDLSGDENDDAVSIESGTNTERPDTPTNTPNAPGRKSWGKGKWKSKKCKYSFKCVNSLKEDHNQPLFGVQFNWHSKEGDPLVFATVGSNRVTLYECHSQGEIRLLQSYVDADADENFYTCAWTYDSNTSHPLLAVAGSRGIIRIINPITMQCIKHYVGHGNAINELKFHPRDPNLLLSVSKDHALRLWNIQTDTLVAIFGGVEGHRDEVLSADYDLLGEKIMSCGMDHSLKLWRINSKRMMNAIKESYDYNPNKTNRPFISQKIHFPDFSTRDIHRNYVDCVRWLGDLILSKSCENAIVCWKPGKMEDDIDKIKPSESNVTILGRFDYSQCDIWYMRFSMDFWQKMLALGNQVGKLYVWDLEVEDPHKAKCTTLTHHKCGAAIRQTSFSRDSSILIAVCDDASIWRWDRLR
Sequence of EZH2 (Q15022 whole entry partner): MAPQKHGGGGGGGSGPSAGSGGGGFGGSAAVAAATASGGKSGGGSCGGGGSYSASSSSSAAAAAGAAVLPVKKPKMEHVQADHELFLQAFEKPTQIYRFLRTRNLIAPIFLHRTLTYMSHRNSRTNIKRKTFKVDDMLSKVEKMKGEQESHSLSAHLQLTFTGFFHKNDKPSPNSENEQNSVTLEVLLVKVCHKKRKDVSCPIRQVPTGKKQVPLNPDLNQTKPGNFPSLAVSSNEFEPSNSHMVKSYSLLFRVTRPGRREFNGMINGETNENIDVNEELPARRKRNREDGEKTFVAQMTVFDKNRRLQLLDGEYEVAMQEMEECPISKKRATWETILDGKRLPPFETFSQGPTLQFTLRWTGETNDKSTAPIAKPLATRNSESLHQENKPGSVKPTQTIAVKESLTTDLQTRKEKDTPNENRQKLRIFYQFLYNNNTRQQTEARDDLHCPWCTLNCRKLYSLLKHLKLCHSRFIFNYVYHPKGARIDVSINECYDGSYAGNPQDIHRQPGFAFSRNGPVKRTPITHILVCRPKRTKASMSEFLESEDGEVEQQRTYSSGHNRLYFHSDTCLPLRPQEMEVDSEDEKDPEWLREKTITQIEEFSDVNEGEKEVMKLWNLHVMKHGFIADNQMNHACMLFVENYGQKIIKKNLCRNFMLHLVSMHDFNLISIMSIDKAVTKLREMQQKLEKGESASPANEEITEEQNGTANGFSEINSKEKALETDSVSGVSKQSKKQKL
Sequence of Y641N EZH2 (Q15910 whole entry Y641N): as the sequence (Q15910 whole entry) above, with Y641N counted along it
Sequence of Y641N EZH2 (O75530 whole entry partner): as the sequence (O75530 whole entry partner) above
Sequence of Y641N EZH2 (Q15022 whole entry partner): as the sequence (Q15022 whole entry partner) above

| Structure (SMILES) | IC50 (Y641N EZH2) [nM] | IC50 (EZH2) [nM] | EC50 [1] [nM] |
| --- | --- | --- | --- |
| COc1cc(C)[nH]c(=O)c1CNC(=O)c1c(C)n([C@H](C)C2CCN(C(=O)N(C)C)CC2)c2ccccc12 [Compound 158] | < 100 | < 100 | 400 to 2000 |
| Cc1cc(C)c(CNC(=O)c2c(C)n([C@H](C)C3CCN(c4ccc(CN5CCOCC5)cn4)CC3)c3ccccc23)c(=O)[nH]1 [Compound 159] | < 100 | < 100 | 400 to 2000 |
| Cc1cc(C)c(CNC(=O)c2c(C)n([C@H](C)C3CCN(c4ccc(CN5CCOCC5)cc4)CC3)c3ccccc23)c(=O)[nH]1 [Compound 160] | < 100 | < 100 | 400 to 2000 |
| Cc1cc(C)c(CNC(=O)c2c(C)n([C@H](C)C3CCN(S(=O)(=O)CCN4CCCC4)CC3)c3ccccc23)c(=O)[nH]1 [Compound 161] | < 100 | < 100 | 400 to 2000 |
| Cc1cc(C)c(CNC(=O)c2c(C)n([C@H](C)C3CCN(C(=O)N4CCN(C)CC4)CC3)c3ccccc23)c(=O)[nH]1 [Compound 162] | < 100 | < 100 | 400 to 2000 |
| COc1cc(C)[nH]c(=O)c1CNC(=O)c1c(C)n([C@H](C)C2CCN(c3ccncn3)CC2)c2ccccc12 [Compound 164] | < 100 | < 100 | > 2000 |
| COCCOCCOCCOCCOCCOCCOC(=O)N1CCC([C@@H](C)n2c(C)c(C(=O)NCc3c(OC)cc(C)[nH]c3=O)c3ccccc32)CC1 [Compound 165] | 100 to 1000 | < 100 | > 2000 |
| COc1cc(C)[nH]c(=O)c1CNC(=O)c1c(C)n([C@H](C)C2CCN(C(CF)CF)CC2)c2ccccc12 [Compound 166] | < 100 | < 100 | > 2000 |
| COc1cc(C)[nH]c(=O)c1CNC(=O)c1c(C)n([C@H](C)C2CCN(C(=O)N3CCOCC3)CC2)c2ccccc12 [Compound 167] | < 100 | < 100 | > 2000 |
| CCN(CC)C(=O)CN1CCC([C@@H](C)n2c(C)c(C(=O)NCc3c(OC)cc(C)[nH]c3=O)c3ccccc32)CC1 [Compound 168] | < 100 | < 100 | > 2000 |
